Values joined by “and” are separate entries in the source; they are usually repeats but may differ in a detail not shown here. Equal entries are not always repeated.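 A five-concentration, 48-hour dose response in 96-well plates underlies each endpoint, interpolated linearly between surrounding concentrations. GI50 is the concentration that inhibits growth by half. TGI: concentration producing complete growth inhibition.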
What was measured:
Test in all cases: NCI tumour cell line growth inhibition, 48 h
MDA-N = tested on: MDA-N
SF-539 CNS = tested on: SF-539 CNS
ACHN renal = tested on: ACHN renal
SK-MEL-5 melanoma = tested on: SK-MEL-5 melanoma
SK-MEL-2 melanoma = tested on: SK-MEL-2 melanoma
COLO 205 colon = tested on: COLO 205 colon
NCI-H226 lung = tested on: NCI-H226 lung
SNB-75 CNS = tested on: SNB-75 CNS
RXF 393 renal = tested on: RXF 393 renal
LOX IMVI melanoma = tested on: LOX IMVI melanoma
HCT-15 colon = tested on: HCT-15 colon

| SMILES | TGI (MDA-N) [µM] | TGI (SF-539 CNS) [µM] | TGI (ACHN renal) [µM] | TGI (SK-MEL-5 melanoma) [µM] | TGI (SK-MEL-2 melanoma) [µM] | TGI (COLO 205 colon) [µM] | TGI (NCI-H226 lung) [µM] | TGI (SNB-75 CNS) [µM] | TGI (RXF 393 renal) [µM] | TGI (LOX IMVI melanoma) [µM] | TGI (HCT-15 colon) | GI50 (HCT-15 colon) [µM] | GI50 (SF-539 CNS) [µM] | GI50 (SK-MEL-5 melanoma) [µM] | GI50 (SK-MEL-2 melanoma) [µM] | GI50 (NCI-H226 lung) [µM] | GI50 (SNB-75 CNS) [µM] | GI50 (RXF 393 renal) [µM] | GI50 (LOX IMVI melanoma) [µM] | GI50 (COLO 205 colon) [µM] |
| --- | --- | --- | --- | --- | --- | --- | --- | --- | --- | --- | --- | --- | --- | --- | --- | --- | --- | --- | --- | --- |
| Nc1c(S(=O)(=O)O)cc(S(=O)(=O)O)c2ccc(N=Nc3ccccc3)c(O)c12 | > 100 | > 100 | > 100 | > 100 | > 100 | > 100 | > 100 | > 100 | > 100 | > 100 | > 100 µM | – | – | – | – | – | – | – | – | – |
| Cc1cn(CC(=S)NCCc2c[nH]c3ccccc23)c(=O)[nH]c1=O | > 100 | > 100 | > 100 | > 100 | > 100 | > 100 | > 100 | – | > 100 | > 100 | > 100 µM | – | – | – | – | – | – | – | – | – |
| CC1CC(C)(O)C2C3(C)CCCC2(COC3=O)C12CCC1(CCOC1=O)O2 (stereo unspecified) | – | > 250 | – | > 250 | > 250 | > 250 | > 250 | > 250 | > 250 | > 250 | > 250 µM | – | – | – | – | – | – | – | – | – |
| CC(=O)NC1C(OCc2ccccc2)OC(CO)C(O)C1OCC(=O)NC(C(=O)NC(CCC(=O)NCCCCCC(=O)Nc1ccc2c(c1)CN1C(=O)c3ccccc3C1=N2)C(N)=O)C(C)C (stereo unspecified) | > 100 | 37.7 | > 100 | 49.6 | 64.8 | > 100 | – | 41.1 | 45 | > 100 | > 100 µM | – | – | – | – | – | – | – | – | – |
| Cc1ccc(C(=O)NC2C(=O)NC(C(C)C)C(=O)N3CCCC3C(=O)N(C)CC(=O)N(C)C(C(C)C)C(=O)OC2C)c2c1Oc1c(c(C(=O)NC3C(=O)NC(C(C)C)C(=O)N4CCCC4C(=O)N(C)CC(=O)N(C)C(C(C)C)C(=O)OC3C)c3nc(-c4ccccc4)c(=O)oc3c1C)N2 (stereo unspecified) | 0.0236 | 0.00264 | 0.801 | 0.0149 | 0.00278 | 0.0295 | 0.00507 | 0.0132 | 0.00911 | – | 0.646 µM and 0.318 µM | 0.0159 | – | – | – | – | – | – | – | – |
| c1ccc(-c2cc3nc4ccccc4nc3cc(-c3ccccc3)[nH][nH]2)cc1 | > 100 | > 100 | 77.9 | > 100 | > 100 | > 100 | > 100 | 99.1 | > 100 | > 100 | > 100 µM | – | – | – | – | – | – | – | – | – |
| C=C1N(C)c2ccc(S(=O)(=O)c3ccc4c(c3)C(C)(C)C(=C)N4C)cc2C1(C)C | > 100 | > 100 | > 100 | 43.6 | > 100 | 29.8 | > 100 | 62.7 | – | – | > 100 µM | – | – | – | – | – | – | – | – | – |
| COC(=O)[C@]12CC[C@H]3CN(S(=O)(=O)c4ccc(C)cc4)[C@H]([C@H]31)[C@H](c1ccco1)N2S(=O)(=O)c1ccc(C)cc1 | 73.7 | > 100 | > 100 | > 100 | > 100 | 45.3 | > 100 | – | 71.5 | > 100 | > 100 µM | – | – | – | – | – | – | – | – | – |
| C[C@@]12CC[C@@H](O)C[C@@H]1CC[C@H]1[C@H]2CC[C@@]2(C)[C@H](c3ccc(=O)oc3)CC[C@@]12O | – | 0.0137 | – | 0.0141 | 0.0299 | – | 0.0723 | 0.0263 | – | 0.0169 | 0.0292 µM | < 0.01 | < 0.01 | < 0.01 | < 0.01 | < 0.0183 | < 0.01 | < 0.01 | < 0.01 | – |
| C/C=C\C1OC1(C)c1cc(=O)c2c(C)cc3c(c2o1)C(=O)c1c(O)c(C2CC(C)(N(C)C)C(OC(C)=O)C(C)O2)cc(C2CC(N(C)C)C(O)C(C)O2)c1C3=O (stereo unspecified) | 0.00857 | 0.0121 | 0.00575 | 0.00936 | 0.00657 | 0.00901 | 0.018 | 0.0067 | 0.00746 | 0.00485 | 0.0291 µM | – | – | – | – | – | – | – | – | – |
| CCn1c2ccccc2c2ccc(C3C4C(=O)N(c5cccc6ccccc56)C(=O)C4ON3C(C(N)=O)c3ccccc3)cc21 (stereo unspecified) | > 25 | > 25 | > 25 | > 25 | > 25 | > 25 | 8.05 | > 25 | > 25 | > 25 | > 25 µM | – | – | – | – | – | – | – | – | – |
| CCCCCCC(=O)OC[n+]1ccc(-c2c(COC(=O)NC(C)C)c(COC(=O)NC(C)C)c3n2CCC3)cc1 | – | > 100 | > 100 | > 100 | > 100 | > 100 | > 100 | > 100 | > 100 | > 100 | > 100 µM | – | – | – | – | – | – | – | – | – |
| C/C(=C\[Si](C)(C)c1ccco1)C(C)(O)[C@H](C)O (stereo partly specified) | > 100 | > 100 | > 100 | > 100 | > 100 | > 100 | > 100 | – | – | > 100 | > 100 µM | – | – | – | – | – | – | – | – | – |
| CC(C)CC(N)C(=O)NC(CNC(CCC(N)=O)C(=O)NC(CC(C)C)C(=O)NC(CC(C)C)C(=O)O)Cc1ccc2ccccc2c1 (stereo unspecified) | > 10 | > 10 | > 10 | > 10 | > 10 | > 10 | > 10 | > 10 | > 10 | > 10 | > 10 µM | – | – | – | – | – | – | – | – | – |
| CCCCCCCCCCCCCCCCCCN(C)CC(COC)OP(=O)([O-])OCC[N+](C)(C)C (stereo unspecified) | 15.3 | 13 | 15.6 | 23.7 | 30.2 | 2.6 | 13.5 | 3.68 | 2.29 | 20.2 | 13.6 µM | – | – | – | – | – | – | – | – | – |
| C=C(C)[C@@H]1CC[C@]2(C(=O)O)CC[C@]3(C)[C@H](CC[C@@H]4[C@@]5(C)C/C(=C/c6ccco6)C(=O)C(C)(C)[C@@H]5CC[C@]43C)[C@@H]12 | – | – | – | – | 8.85 | 4.38 | – | > 100 | – | – | 10.5 µM | 2.59 | – | – | 2.75 | – | > 100 | – | – | 2.15 |
| O=C(O)C1=C(CO)Oc2cc3c(cc2C1c1ccc2c(c1)OCO2)OCO3 (stereo unspecified) | – | > 100 | > 100 | > 100 | > 100 | > 100 | – | > 100 | > 100 | > 100 | > 100 µM | – | – | – | – | – | – | – | – | – |

— PubChem BioAssay (NCI)
